Test results reported in patent publication US20160002204A1 (Board of Regents, The University of Texas System, priority 2014, published 2016).
pEC50, pIC50: −log10 of the molar value.

Assays:
[1] = target: T1, GLS1 (purified recombinant human GAC) (Homo sapiens, UniProt O94925); experiment: GLS1 enzymatic activity assay (dual-coupled, Amplex UltraRed/resorufin); assay type: biochemical
T1 sequence (O94925 55-598 isoform O94925-3 limits assumed): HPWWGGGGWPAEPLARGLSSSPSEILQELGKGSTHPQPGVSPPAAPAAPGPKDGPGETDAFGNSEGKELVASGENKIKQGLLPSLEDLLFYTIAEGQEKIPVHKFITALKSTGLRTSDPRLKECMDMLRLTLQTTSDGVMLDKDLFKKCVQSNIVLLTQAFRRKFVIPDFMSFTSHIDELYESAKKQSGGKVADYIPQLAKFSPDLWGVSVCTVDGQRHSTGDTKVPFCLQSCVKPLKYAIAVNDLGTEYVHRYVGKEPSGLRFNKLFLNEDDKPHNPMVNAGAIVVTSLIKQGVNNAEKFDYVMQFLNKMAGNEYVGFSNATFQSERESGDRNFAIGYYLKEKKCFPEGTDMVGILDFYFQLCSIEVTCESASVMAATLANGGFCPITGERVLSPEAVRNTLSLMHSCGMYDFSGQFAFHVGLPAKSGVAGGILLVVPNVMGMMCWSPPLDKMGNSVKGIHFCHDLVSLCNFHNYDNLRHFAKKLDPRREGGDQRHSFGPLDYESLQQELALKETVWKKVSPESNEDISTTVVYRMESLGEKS
Outline: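 In this coupled fluorometric format, phosphate-activated GAC (2 nM, 50 mM phosphate) is pre-exposed to compound for 10 min before 1 mM glutamine addition. Product is tracked as resorufin (530/590 nm) over time or at 20 min, and potency is derived by logistic fitting.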

A549 cells = experiment: A549 proliferation (viability) assay, Cell Titer Fluor, 72 hours; assay type: cell-based; settings: Homo sapiens
Outline: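 Compound was added to A549 cells (1000/well, pre-grown 24 h in RPMI 1640 plus 10% dialyzed FBS) at 0.5% DMSO and left 72 h under 37 °C, 5% CO2, ambient O2. Live-cell fluorescence (Cell Titer Fluor) gave the EC50.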

Row | Compound | pIC50 [1] | pEC50 (A549 cells)
1 | O=C(CC1CCC1)Nc1ccn(CCC(F)Cn2cc(C(=O)NCc3cc(Cl)ccc3F)nn2)c(=O)c1 (stereo not drawn) [Example 214, N-[(5-chloro-2-fluorophenyl)methyl]-1-{4-[4-(2-cyclobutylacetamido)-2-oxo-1,2-dihydropyridin-1-yl]-2-fluorobutyl}-1H-1,2,3-triazole-4-carboxamide] | > 7.00 | 6.30 to 7.00
2 | O=C(Cc1ccccc1)Nc1ccc(CCCCn2ccc(NC(=O)Oc3ccccc3)nc2=O)nn1 [Example 97, phenyl N-(2-oxo-1-{4-[6-(2-phenylacetamido)pyridazin-3-yl]butyl}-1,2-dihydropyrimidin-4-yl)carbamate] | 6.30 to 7.00 | < 5.30
3 | O=C(CC1CCCCC1)Nc1ccn(CCC(F)Cn2cc(C(=O)NCc3cccc(C(F)(F)F)n3)nn2)c(=O)c1F (stereo not drawn) [Example 262, 1-{4-[4-(2-cyclohexylacetamido)-3-fluoro-2-oxo-1,2-dihydropyridin-1-yl]-2-fluorobutyl}-N-{[6-(trifluoromethyl)pyridin-2-yl]methyl}-1H-1,2,3-triazole-4-carboxamide] | > 7.00 | > 7.00
4 | O=C(NCc1cccnc1)c1ccn(CCCCn2cc(C(=O)NCc3cccc(OC(F)(F)F)c3)nn2)c(=O)c1 [Example 60, 2-oxo-N-(pyridin-3-ylmethyl)-1-{4-[4-({[3-(trifluoro-methoxy)phenyl]methyl}carbamoyl)-1H-1,2,3-triazol-1-yl]butyl}-1,2-dihydropyridine-4-carboxamide] | 6.30 to 7.00 | < 5.30
5 | O=C(Cc1cccc(OC(F)(F)F)c1)Nc1ccn(CCCCn2cc(C(=O)NCc3cccc(OC(F)(F)F)c3)nn2)c(=O)c1 [Example 52, 1-[4-(2-oxo-4-{2-[3-(trifluoromethoxy)phenyl]acetamido}-1,2-dihydropyridin-1-yl)butyl]-N-{[3-(trifluoromethoxy)phenyl]methyl}-1H-1,2,3-triazole-4-carboxamide] | > 7.00 | 6.30 to 7.00
6 | O=C(Cc1cccc(OC(F)(F)F)c1)Nc1ccc(CCCCn2ccc(NC(=O)[C@H](O)c3ccccc3)nc2=O)nn1 [Example 101, (2R)-2-hydroxy-N-{2-oxo-1-[4-(6-{2-[3-(trifluoro-methoxy)phenyl]acetamido}pyridazin-3-yl)butyl]-1,2-dihydropyrimidin-4-yl}-2-phenylacetamide] | > 7.00 | 6.30 to 7.00
7 | CC(C)(C)OC(=O)Nc1ccn(CCC(F)Cn2cc(C(=O)NCc3cccc(OC(F)(F)F)c3)nn2)c(=O)c1F (stereo not drawn) [Example 226, tert-butyl N-(3-fluoro-1-{3-fluoro-4-[4-({[3-(trifluoro-methoxy)phenyl]methyl}carbamoyl)-1H-1,2,3-triazol-1-yl]butyl}-2-oxo-1,2-dihydropyridin-4-yl)carbamate] | > 7.00 | > 7.00
8 | O=C(Cc1cccc(OC(F)(F)F)c1)Nc1ccn(CCCCn2cc(C(=O)NCc3ccccc3)nn2)c(=O)c1 [Example 51, N-benzyl-1-[4-(2-oxo-4-{2-[3-(trifluoromethoxy)phenyl]acetamido}-1,2-dihydropyridin-1-yl)butyl]-1H-1,2,3-triazole-4-carboxamide] | > 7.00 | 5.30 to 6.30
9 | CC(NC(=O)c1cn(CCCCn2ccc(NC(=O)CC3CCCCC3)cc2=O)nn1)c1cccc(OC(F)(F)F)c1 (stereo not drawn) [Example 193, 1-{4-[4-(2-cyclohexylacetamido)-2-oxo-1,2-dihydropyridin-1-yl]butyl}-N-{1-[3-(trifluoromethoxy)phenyl]ethyl}-1H-1,2,3-triazole-4-carboxamide] | 6.30 to 7.00 | 5.30 to 6.30
10 | O=C(CC1CCCCC1)Nc1ccn(CCC(F)Cn2cc(C(=O)NCc3ccc(C(F)(F)F)cn3)nn2)c(=O)c1F (stereo not drawn) [Example 261, 1-{4-[4-(2-cyclohexylacetamido)-3-fluoro-2-oxo-1,2-dihydropyridin-1-yl]-2-fluorobutyl}-N-{[5-(trifluoromethyl)pyridin-2-yl]methyl}-1H-1,2,3-triazole-4-carboxamide] | > 7.00 | > 7.00

Further lines, results first:

Row | pIC50 [1] | pEC50 (A549 cells) | Compound
11 | > 7.00 | 6.30 to 7.00 | COC1CCCN(C(=O)C(=O)Nc2ccn(CCC(F)Cn3cc(C(=O)NCc4cc(OC(F)(F)F)ccc4F)nn3)c(=O)c2F)C1 (stereo not drawn) [Example 433, 1-(2-fluoro-4-{3-fluoro-4-[2-(3-methoxypiperidin-1-yl)-2-oxoacetamido]-2-oxo-1,2-dihydropyridin-1-yl}butyl)-N-{[2-fluoro-5-(trifluoromethoxy)phenyl]methyl}-1H-1,2,3-triazole-4-carboxamide]
12 | 6.30 to 7.00 | 6.30 to 7.00 | O=C(NCc1cc(C(F)(F)F)ccn1)c1cn(CC(F)CCn2ccc(COc3ccccc3F)cc2=O)nn1 (stereo not drawn) [Example 487, 1-{2-fluoro-4-[4-(2-fluorophenoxymethyl)-2-oxo-1,2-dihydropyridin-1-yl]butyl}-N-{[4-(trifluoromethyl)pyridin-2-yl]methyl}-1H-1,2,3-triazole-4-carboxamide]
13 | > 7.00 | 6.30 to 7.00 | CC1(C)CN(CC(=O)Nc2ccn(CCC(F)Cn3cc(C(=O)NCc4cccc(OC(F)(F)F)c4)nn3)c(=O)c2)CCO1 (stereo not drawn) [Example 276, 1-(4-{4-[2-(2,2-dimethylmorpholin-4-yl)acetamido]-2-oxo-1,2-dihydropyridin-1-yl}-2-fluorobutyl)-N-{[3-(trifluoromethoxy)phenyl]methyl}-1H-1,2,3-triazole-4-carboxamide]
14 | > 7.00 | > 7.00 | CC(C)(C)OC(=O)N1CCN(CC(=O)Nc2ccn(CCC(F)Cn3cc(C(=O)NCc4cccc(OC(F)(F)F)c4)nn3)c(=O)c2)CC1 (stereo not drawn) [Example 271, tert-butyl 4-{[(1-{3-fluoro-4-[4-({[3-(trifluoromethoxy)phenyl]methyl}carbamoyl)-1H-1,2,3-triazol-1-yl]butyl}-2-oxo-1,2-dihydropyridin-4-yl)carbamoyl]methyl}piperazine-1-carboxylate]
15 | > 7.00 | > 7.00 | CC(C)(C)OC(=O)N1CCN(CC(=O)Nc2ccn(CCC(F)Cn3cc(C(=O)NCc4cccc(OC(F)(F)F)c4)nn3)c(=O)c2F)CC1 (stereo not drawn) [Example 296, tert-butyl 4-{[(3-fluoro-1-{3-fluoro-4-[4-({[3-(trifluoro-methoxy)phenyl]methyl}carbamoyl)-1H-1,2,3-triazol-1-yl]butyl}-2-oxo-1,2-dihydropyridin-4-yl)carbamoyl]methyl}piperazine-1-carboxylate]
16 | > 7.00 | 6.30 to 7.00 | CC1CN(CC(=O)Nc2ccn(CCC(F)Cn3cc(C(=O)NCc4cccc(OC(F)(F)F)c4)nn3)c(=O)c2)CCO1 (stereo not drawn) [Example 278, 1-(2-fluoro-4-{4-[2-(2-methylmorpholin-4-yl)acetamido]-2-oxo-1,2-dihydropyridin-1-yl}butyl)-N-{[3-(trifluoromethoxy)phenyl]methyl}-1H-1,2,3-triazole-4-carboxamide]
17 | > 7.00 | > 7.00 | O=C(NCc1cncc(C(F)(F)F)c1)c1cn(CC(F)CCn2ccc(NC(=O)C3CCCC3)c(F)c2=O)nn1 (stereo not drawn) [Example 364, 1-[4-(4-cyclopentaneamido-3-fluoro-2-oxo-1,2-dihydropyridin-1-yl)-2-fluorobutyl]-N-{[5-(trifluoromethyl)pyridin-3-yl]methyl}-1H-1,2,3-triazole-4-carboxamide]
18 | > 7.00 | > 7.00 | O=C(Cc1ccccc1F)Nc1ccn(CCC(F)Cn2cc(C(=O)NCc3cncc(C(F)(F)F)c3)nn2)c(=O)c1F (stereo not drawn) [Example 361, 1-(2-fluoro-4-{3-fluoro-4-[2-(2-fluorophenyl)acetamido]-2-oxo-1,2-dihydropyridin-1-yl}butyl)-N-{[5-(trifluoromethyl)pyridin-3-yl]methyl}-1H-1,2,3-triazole-4-carboxamide]
19 | > 7.00 | > 7.00 | Cc1ccc(CNC(=O)c2nnc(CCCCn3ccc(NC(=O)Cc4cccc(OC(F)(F)F)c4)cc3=O)s2)cn1 [Example 442, N-[(6-methylpyridin-3-yl)methyl]-5-[4-(2-oxo-4-{2-[3-(trifluoromethoxy)phenyl]acetamido}-1,2-dihydropyridin-1-yl)butyl]-1,3,4-thiadiazole-2-carboxamide]
20 | > 7.00 | > 7.00 | O=C(Cc1ccccc1)Nc1ccn(CCCCc2nnc(C(=O)NCc3cc(OC(F)(F)F)ccc3F)s2)c(=O)c1 [Example 458, N-{[2-fluoro-5-(trifluoromethoxy)phenyl]methyl}-5-{4-[2-oxo-4-(2-phenylacetamido)-1,2-dihydropyridin-1-yl]butyl}-1,3,4-thiadiazole-2-carboxamide]
21 | > 7.00 | > 7.00 | O=C(Cc1ccc(F)cc1F)Nc1ccn(CCC(F)Cn2cc(C(=O)NCc3cccc(OC(F)(F)F)c3)nn2)c(=O)c1F (stereo not drawn) [Example 334, 1-(4-{4-[2-(2,4-difluorophenyl)acetamido]-3-fluoro-2-oxo-1,2-dihydropyridin-1-yl}-2-fluorobutyl)-N-{[3-(trifluoromethoxy)phenyl]methyl}-1H-1,2,3-triazole-4-carboxamide]
